Columns and labels:
Assay in all cases: relative viability (nuclei count vs DMSO), 5 days (fraction); higher = more cells survive
[1] = compound: C1CC(C1)(C(=O)O)C(=O)O.[NH2-].[NH2-].[Pt+2] [Carboplatin] + C[C@]1(O)C[C@@H](c2nc(-c3ccc4ccc(-c5ccccc5)nc4c3)c3c(N)nccn32)C1 [Linsitinib] (partner 1 µM)
Outline: (§1)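 Relative viability divides the nuclei count in treated wells by that in vehicle wells. Lung cancer cell lines were seeded in 1536-well plates, dosed by pin tool the next day, and fixed and stained after 5 days in one step with final 0.05% Triton X-100, 1% formaldehyde and 1 ug/ml Hoechst. Dosing was a single drug or a fixed anchor-drug dose plus five library-drug doses (not always all listed) in √10 steps, and values are medians of duplicate plates imaged at 4×.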

[2] = compound: C1CC(C1)(C(=O)O)C(=O)O.[NH2-].[NH2-].[Pt+2] [Carboplatin] + CC(C)C[C@H](NC(=O)[C@H](Cc1ccccc1)NC(=O)c1cnccn1)B(O)O [Bortezomib] (partner 0.002 µM)
Outline: as §1

[3] = compound: CC[C@H](C)N1C=C(C2=C(C=C(C=C21)C3=CN=C(C=C3)N4CCNCC4)C(=O)NCC5=C(C=C(NC5=O)C)C)C [GSK126] + Nc1nc2[nH]cc(CCc3ccc(C(=O)N[C@@H](CCC(=O)O)C(=O)O)cc3)c2c(=O)[nH]1 [Pemetrexed] (partner 0.2 µM)
Outline: as §1

[4] = compound: NS(=O)(=O)OC[C@@H]1C[C@@H](n2ccc3c(N[C@H]4CCc5ccccc54)ncnc32)C[C@@H]1O [MLN4924] + COc1cccc2cc(-c3nc([C@H]4CC[C@H](C(=O)O)CC4)n4ncnc(N)c34)[nH]c12 [OSI-027] (partner 0.5 µM)
Outline: as §1

Row | Cell Line | relative viability ([1]; first compound 0.08 µM) | relative viability ([1]; first compound 0.253 µM) | relative viability ([1]; first compound 0.8 µM) | relative viability ([1]; first compound 2.53 µM) | relative viability ([1]; first compound 8 µM) | relative viability ([2]; first compound 0.08 µM) | relative viability ([2]; first compound 0.253 µM) | relative viability ([2]; first compound 0.8 µM) | relative viability ([2]; first compound 2.53 µM) | relative viability ([2]; first compound 8 µM) | relative viability ([3]; first compound 0.08 µM) | relative viability ([3]; first compound 0.253 µM) | relative viability ([3]; first compound 0.8 µM) | relative viability ([3]; first compound 2.53 µM) | relative viability ([3]; first compound 8 µM) | relative viability ([4]; first compound 0.04 µM) | relative viability ([4]; first compound 0.1265 µM) | relative viability ([4]; first compound 0.4 µM) | relative viability ([4]; first compound 1.265 µM) | relative viability ([4]; first compound 4 µM)
1 | 201T | 1.06 | 1.04 | 0.976 | 1 | 0.962 | 1.18 | 1.11 | 1.13 | 1.14 | 1.06 | 0.346 | 0.342 | 0.329 | 0.367 | 0.328 | 0.824 | 0.857 | 0.46 | 0.139 | 0.115
2 | A549 | 0.715 | 0.717 | 0.666 | 0.522 | 0.446 |  |  |  |  |  |  |  |  |  |  |  |  |  |  | 
3 | A-427 | 1.07 | 1.08 | 1.03 | 1.02 | 1.12 | 0.984 | 1.11 | 0.904 | 0.905 | 1.01 | 1.03 | 0.937 | 1.03 | 1.08 | 0.991 | 0.356 | 0.239 | 0.214 | 0.173 | 0.171
4 | ABC-1 | 0.633 | 0.939 | 0.779 | 0.864 | 0.703 | 0.291 | 0.442 | 0.354 | 0.355 | 0.335 |  |  |  |  |  | 0.7 | 0.511 | 0.323 | 0.196 | 0.248
5 | BEN | 1.01 | 1.05 | 0.722 | 0.748 | 0.777 | 0.837 | 0.889 | 0.988 | 0.898 | 0.782 | 0.881 | 0.715 | 0.832 | 0.896 | 0.785 | 0.318 | 0.308 | 0.228 | 0.218 | 0.195
6 | CAL-12T | 0.803 | 0.913 | 0.838 | 0.809 | 0.797 | 1.28 | 0.826 | 0.972 | 1.07 | 0.911 | 1.31 | 1.37 | 1.09 | 1.13 | 1.43 | 0.619 | 0.593 | 0.283 | 0.184 | 0.113
7 | COR-L23 | 0.976 | 0.91 | 0.754 | 0.529 | 0.297 | 0.887 | 0.987 | 0.918 | 0.707 | 0.355 | 0.229 | 0.194 | 0.188 | 0.185 | 0.183 | 0.718 | 0.602 | 0.555 | 0.199 | 0.119
8 | COR-L 105 | 0.88 | 1.02 | 0.681 | 0.792 | 0.572 | 0.89 | 0.745 | 0.832 | 0.794 | 0.424 | 1.08 | 0.987 | 0.887 | 1.11 | 1.12 | 0.721 | 0.617 | 0.511 | 0.238 | 0.311
9 | Calu-6 | 0.988 | 0.948 | 0.943 | 0.967 | 0.601 | 0.927 | 0.974 | 0.925 | 0.823 | 0.496 |  |  |  |  |  |  |  |  |  | 
10 | ChaGo-K-1 |  |  |  |  |  | 1.08 | 0.837 | 0.916 | 0.786 | 0.406 | 0.256 | 0.269 | 0.265 | 0.256 | 0.254 | 0.461 | 0.35 | 0.272 | 0.181 | 0.176
11 | EBC-1 | 0.957 | 0.993 | 0.896 | 0.918 | 0.835 | 0.528 | 0.507 | 0.551 | 0.518 | 0.438 |  |  |  |  |  |  |  |  |  | 
12 | EKVX | 1.13 | 1.07 | 0.849 | 0.847 | 0.893 | 1.06 | 1.13 | 1.01 | 1.06 | 0.976 | 0.403 | 0.373 | 0.413 | 0.374 | 0.31 | 0.71 | 0.712 | 0.622 | 0.214 | 0.175
13 | EMC-BAC-2 | 0.84 | 0.799 | 0.801 | 0.804 | 0.717 | 1.14 | 1.02 | 1.13 | 1.05 | 0.957 | 0.421 | 0.46 | 0.46 | 0.419 | 0.376 | 0.383 | 0.36 | 0.197 | 0.194 | 0.243
14 | EPLC-272H | 1.17 | 1.32 | 1.01 | 1.11 | 1.01 | 0.86 | 1.1 | 0.972 | 1.01 | 0.877 | 0.327 | 0.327 | 0.26 | 0.366 | 0.322 | 0.291 | 0.265 | 0.0696 | 0.13 | 0.136
15 | H3255 | 0.971 | 0.941 | 0.949 | 0.87 | 0.722 | 0.832 | 0.762 | 0.874 | 0.865 | 0.526 | 0.596 | 0.548 | 0.568 | 0.898 | 0.58 | 0.578 | 0.472 | 0.373 | 0.256 | 0.291
16 | HARA | 0.94 | 0.985 | 0.703 | 0.853 | 0.904 | 1.06 | 1.13 | 1.09 | 1.01 | 0.939 | 0.247 | 0.258 | 0.231 | 0.215 | 0.215 | 0.465 | 0.361 | 0.271 | 0.0502 | 0.0686
17 | HCC-15 | 0.9 | 0.892 | 0.888 | 0.812 | 0.7 | 1.1 | 1.05 | 0.999 | 0.914 | 0.795 | 0.221 | 0.229 | 0.224 | 0.215 | 0.238 | 0.347 | 0.197 | 0.139 | 0.0813 | 0.0848
18 | HCC-44 | 0.668 | 0.685 | 0.606 | 0.478 | 0.543 | 0.968 | 0.882 | 0.833 | 0.864 | 0.785 | 0.65 | 0.712 | 0.581 | 0.602 | 0.551 | 0.423 | 0.263 | 0.171 | 0.216 | 0.233
